Type in all cases: in vivo
Assay [1] has as its system Echinochloa crus-galli (L.) P. Beauv. var. formosensis Ohwi. The experiment in a line: Test for Herbicidal Effect in Flooding Treatment (#1), ECHDG. The conditions noted are these: for ECHDG #1 herbicidal effect (growth inhibition grade): flooding treatment at seeding, dose 2 kg/ha, visual observation on day 21. The procedure:
(§1) (#1) Test for Herbicidal Effect in Flooding Treatment: Styrol cups each having an opening diameter of 8 cm (about 52 cm^2) were respectively filled with soil (45 ml) which had been passed through a sieve (2 mm). Water (about 115 ml) was mixed with the soil such that the soil was flooded. After the soil stood still for 24 hours, Monochoria vaginalis, Echinochloa crus-galli (L.) P. Beauv. var. formosensis Ohwi, Cyperus difformis (umbrella sedge), and Scirpus juncoides were seeded. Each of the compounds of the present invention was dissolved in acetone, and the obtained product was then diluted with water containing Tween 80®. Each of the resultant chemical solutions was dropped on the entire surface of an associated one of treatment sections, so that each section was treated with 1 ml of the respective chemical solution (a dose of 2 kg/ha). After the treatment, the plants were grown in a glasshouse. On day 21, a survey was conducted on the herbicidal activity by visual observation, and evaluation was made according to the following criteria. 0: Growth inhibition effect is less than 10%. 1: Growth inhibition effect is equal to or greater than 10%, and less than 30%. 2; Growth inhibition effect is equal to or greater than 30%, and less than 50%. 3: Growth inhibition effect equal to or greater than 50%, and less than 70%. 4: Growth inhibition effect is equal to or greater than 70%, and less than 90%. 5: Growth inhibition effect is equal to or greater than 90%, or complete withering is achieved. ECHDG=Echinochloa crus-galli (L.) P. Beauv. var. formosensis Ohwi, MONVA=Monochoria vaginalis, SCIJU=Scirpus juncoides, CYMIC=Cyperus microiria.

The test system of a further assay is Scirpus juncoides. The assay can be described thus: Test for Herbicidal Effect in Flooding Treatment (#1), SCIJU. The conditions noted are these: for SCIJU #1 herbicidal effect (growth inhibition grade): flooding treatment at seeding, dose 2 kg/ha, visual observation on day 21. The procedure:
as §1

In assay [2] the test system is Echinochloa crus-galli (L.) P. Beauv. var. formosensis Ohwi. The assay can be described thus: Test for Herbicidal Effect in Flooding Treatment (#2), ECHDG at 2-2.5 leaf stage. The conditions noted are these: for ECHDG (2-2.5L) #2 herbicidal effect (growth inhibition grade): flooding treatment at 2-2.5 leaf stage, dose 0.2 kg/ha, visual observation on day 21. The procedure: (#2) Test for Herbicidal Effect in Flooding Treatment: Styrol cups each having an opening diameter of 13 cm (about 130 cm^2) were respectively filled with muddy soil (500 ml). Water (about 300 ml) was mixed with the soil such that the soil was flooded. After the soil stood still for 24 hours, Echinochloa crus-galli (L.) P. Beauv. var. formosensis Ohwi was seeded. When the Echinochloa crus-galli (L.) P. Beauv. var. formosensis Ohwi grew to reach 2-2.5 leaf stage, chemical solutions were dropped on the entire surface of treatment sections, so that each section is treated with 1 ml of the respective chemical solution (a dose of 0.2 kg/ha). Each of the chemical solutions was prepared by dissolving associated one of the compounds of the present invention in acetone, followed by dilution with water containing Tween 80 g. After the treatment, the plants were grown in a glasshouse. On day 21, a survey was conducted on the herbicidal activity by visual observation, and evaluation was made according to the following criteria. 0: Growth inhibition effect is less than 10%. 1: Growth inhibition effect is equal to or greater than 10%, and less than 30%. 2; Growth inhibition effect is equal to or greater than 30%, and less than 50%. 3: Growth inhibition effect equal to or greater than 50%, and less than 70%. 4: Growth inhibition effect is equal to or greater than 70%, and less than 90%. 5: Growth inhibition effect is equal to or greater than 90%, or complete withering is achieved. ECHDG=Echinochloa crus-galli (L.) P. Beauv. var. formosensis Ohwi, MONVA=Monochoria vaginalis, SCIJU=Scirpus juncoides, CYMIC=Cyperus microiria. The herbicidal activity of the following comparative compounds A and B (the compounds disclosed Japanese Unexamined Patent Publication No. 2003-096059) were evaluated in a manner pursuant to Test Example 1. (#2).

SMILES strings stand for the structures.

Regarding `O=S(=O)(Oc1cccc(F)c1C[S+]([O-])c1ncc(Cl)s1)C(F)(F)F` (stereo not drawn) [Compound 1B-29], the “ECHDG #1 herbicidal effect (growth inhibition rating 0-5)” value in assay [1] (flooding treatment #1) is recorded as 5 (Growth inhibition effect is equal to or greater than 90%, or complete withering is achieved). The “SCIJU #1 herbicidal effect (growth inhibition rating 0-5)” value with Scirpus juncoides (flooding treatment #1) is listed as 5 (Growth inhibition effect is equal to or greater than 90%, or complete withering is achieved). Further, the “ECHDG (2-2.5L) #2 herbicidal effect (growth inhibition rating 0-5)” value in assay [2] (flooding treatment #2, 2-2.5 leaf stage) is listed as 5 (Growth inhibition effect is equal to or greater than 90%, or complete withering is achieved).
As for `COCOc1cccc(F)c1CS(=O)(=O)c1ncc(Cl)s1` [Compound 1C-37], the “ECHDG #1 herbicidal effect (growth inhibition grade)” value in assay [1] is reported as 5 (Growth inhibition effect is equal to or greater than 90%, or complete withering is achieved). Also, the “SCIJU #1 herbicidal effect (growth inhibition grade)” value in the assay with Scirpus juncoides is 5 (Growth inhibition effect is equal to or greater than 90%, or complete withering is achieved). The “ECHDG (2-2.5L) #2 herbicidal effect (growth inhibition grade)” value in assay [2] is reported as 5 (Growth inhibition effect is equal to or greater than 90%, or complete withering is achieved).
In the case of `O=S(=O)(Cc1c(F)cccc1OC(F)(F)F)c1ncc(Cl)s1` [Compound 1C-48], the “ECHDG #1 herbicidal effect (growth inhibition grade)” value in assay [1] was 5 (Growth inhibition effect is equal to or greater than 90%, or complete withering is achieved). The “SCIJU #1 herbicidal effect (growth inhibition grade)” value in the assay on Scirpus juncoides is 5 (Growth inhibition effect is equal to or greater than 90%, or complete withering is achieved). For the same compound, the “ECHDG (2-2.5L) #2 herbicidal effect (growth inhibition grade)” value in assay [2] is 5 (Growth inhibition effect is equal to or greater than 90%, or complete withering is achieved).
In the case of `O=S(=O)(Cc1c(OCC(F)(F)F)cccc1C(F)(F)F)c1ncc(Cl)s1` [Compound 1C-56], in assay [1], the “ECHDG #1 herbicidal effect (growth inhibition grade)” value is listed as 5 (Growth inhibition effect is equal to or greater than 90%, or complete withering is achieved). Besides, the “SCIJU #1 herbicidal effect (growth inhibition grade)” value with Scirpus juncoides is listed as 5 (Growth inhibition effect is equal to or greater than 90%, or complete withering is achieved). Moreover, the “ECHDG (2-2.5L) #2 herbicidal effect (growth inhibition grade)” value in assay [2] was 5 (Growth inhibition effect is equal to or greater than 90%, or complete withering is achieved).
For the compound `O=S(=O)(Cc1ccccc1OC(F)(F)C(F)F)c1ncc(Cl)s1` [Compound 1C-57], the “ECHDG #1 herbicidal effect (growth inhibition grade)” value in assay [1] was 5 (Growth inhibition effect is equal to or greater than 90%, or complete withering is achieved). Also, in the assay on Scirpus juncoides, the “SCIJU #1 herbicidal effect (growth inhibition grade)” value is recorded as 5 (Growth inhibition effect is equal to or greater than 90%, or complete withering is achieved). The “ECHDG (2-2.5L) #2 herbicidal effect (growth inhibition grade)” value in assay [2] is 5 (Growth inhibition effect is equal to or greater than 90%, or complete withering is achieved).
For the compound `O=S(=O)(Cc1ccc(OCc2ccccc2)cc1)c1ncc(Cl)s1` [Compound 1C-120], in assay [1], the “ECHDG #1 herbicidal effect (growth inhibition grade)” value is given as 5 (Growth inhibition effect is equal to or greater than 90%, or complete withering is achieved). In addition, the “SCIJU #1 herbicidal effect (growth inhibition grade)” value with Scirpus juncoides was 4 (Growth inhibition effect is equal to or greater than 70%, and less than 90%). Besides, in assay [2], the “ECHDG (2-2.5L) #2 herbicidal effect (growth inhibition grade)” value is 2 (Growth inhibition effect is equal to or greater than 30%, and less than 50%).
`CC(C)(c1c(F)cccc1OC(F)F)S(=O)(=O)c1ncc(Cl)s1` [Compound 1C-141]: the “ECHDG #1 herbicidal effect (growth inhibition grade)” value in assay [1] is 5 (Growth inhibition effect is equal to or greater than 90%, or complete withering is achieved). In addition, the “SCIJU #1 herbicidal effect (growth inhibition grade)” value in the assay with Scirpus juncoides is on record as 5 (Growth inhibition effect is equal to or greater than 90%, or complete withering is achieved). Further, the “ECHDG (2-2.5L) #2 herbicidal effect (growth inhibition grade)” value in assay [2] was 4 (Growth inhibition effect is equal to or greater than 70%, and less than 90%).
In the case of `COc1cccc(Cl)c1CS(=O)(=O)c1ncc(Br)s1` [Compound 1C-151], in assay [1], the “ECHDG #1 herbicidal effect (growth inhibition grade)” value is recorded as 5 (Growth inhibition effect is equal to or greater than 90%, or complete withering is achieved). In the assay on Scirpus juncoides, the “SCIJU #1 herbicidal effect (growth inhibition grade)” value is given as 5 (Growth inhibition effect is equal to or greater than 90%, or complete withering is achieved). Also, in assay [2], the “ECHDG (2-2.5L) #2 herbicidal effect (growth inhibition grade)” value is recorded as 5 (Growth inhibition effect is equal to or greater than 90%, or complete withering is achieved).
Take `O=S(=O)(Cc1ccccc1OC(F)F)c1ncc(Br)s1` [Compound 1C-152]: in assay [1], the “ECHDG #1 herbicidal effect (growth inhibition grade)” value is reported as 5 (Growth inhibition effect is equal to or greater than 90%, or complete withering is achieved). In the assay on Scirpus juncoides, the “SCIJU #1 herbicidal effect (growth inhibition grade)” value is given as 5 (Growth inhibition effect is equal to or greater than 90%, or complete withering is achieved). In addition, the “ECHDG (2-2.5L) #2 herbicidal effect (growth inhibition grade)” value in assay [2] is 5 (Growth inhibition effect is equal to or greater than 90%, or complete withering is achieved).
As to `O=S(=O)(Cc1c(F)cccc1OC(F)(F)F)c1ncc(Br)s1` [Compound 1C-158], the “ECHDG #1 herbicidal effect (growth inhibition grade)” value in assay [1] is listed as 5 (Growth inhibition effect is equal to or greater than 90%, or complete withering is achieved). The “SCIJU #1 herbicidal effect (growth inhibition grade)” value in the assay with Scirpus juncoides is listed as 5 (Growth inhibition effect is equal to or greater than 90%, or complete withering is achieved). Besides, the “ECHDG (2-2.5L) #2 herbicidal effect (growth inhibition grade)” value in assay [2] is on record as 5 (Growth inhibition effect is equal to or greater than 90%, or complete withering is achieved).
`O=S(=O)(Cc1c(Cl)cccc1OC(F)(F)F)c1ncc(Br)s1` [Compound 1C-159]: in assay [1], the “ECHDG #1 herbicidal effect (growth inhibition grade)” value is on record as 5 (Growth inhibition effect is equal to or greater than 90%, or complete withering is achieved). Also, in the assay on Scirpus juncoides, the “SCIJU #1 herbicidal effect (growth inhibition grade)” value is reported as 5 (Growth inhibition effect is equal to or greater than 90%, or complete withering is achieved). Besides, the “ECHDG (2-2.5L) #2 herbicidal effect (growth inhibition grade)” value in assay [2] was 5 (Growth inhibition effect is equal to or greater than 90%, or complete withering is achieved).
`CCS(=O)(=O)c1cccc(F)c1CS(=O)(=O)c1ncc(Cl)s1` [Compound 1C-174]: in assay [1], the “ECHDG #1 herbicidal effect (growth inhibition grade)” value was 5 (Growth inhibition effect is equal to or greater than 90%, or complete withering is achieved). For the same compound, the “SCIJU #1 herbicidal effect (growth inhibition grade)” value in the assay on Scirpus juncoides is given as 5 (Growth inhibition effect is equal to or greater than 90%, or complete withering is achieved). Moreover, in assay [2], the “ECHDG (2-2.5L) #2 herbicidal effect (growth inhibition grade)” value is 4 (Growth inhibition effect is equal to or greater than 70%, and less than 90%).
Take `O=S(=O)(Cc1c(Cl)cc(OC(F)F)cc1Cl)c1ncc(Cl)s1` [Compound 1C-175]: the “ECHDG #1 herbicidal effect (growth inhibition grade)” value in assay [1] is 5 (Growth inhibition effect is equal to or greater than 90%, or complete withering is achieved). Moreover, the “SCIJU #1 herbicidal effect (growth inhibition grade)” value in the assay with Scirpus juncoides is given as 5 (Growth inhibition effect is equal to or greater than 90%, or complete withering is achieved). In addition, the “ECHDG (2-2.5L) #2 herbicidal effect (growth inhibition grade)” value in assay [2] is listed as 5 (Growth inhibition effect is equal to or greater than 90%, or complete withering is achieved).
As for `O=S(=O)(Cc1c(F)cc(OC(F)F)cc1F)c1ncc(Cl)s1` [Compound 1C-176], the “ECHDG #1 herbicidal effect (growth inhibition grade)” value in assay [1] is 5 (Growth inhibition effect is equal to or greater than 90%, or complete withering is achieved). In the assay on Scirpus juncoides, the “SCIJU #1 herbicidal effect (growth inhibition grade)” value was 5 (Growth inhibition effect is equal to or greater than 90%, or complete withering is achieved). Also, in assay [2], the “ECHDG (2-2.5L) #2 herbicidal effect (growth inhibition grade)” value is listed as 5 (Growth inhibition effect is equal to or greater than 90%, or complete withering is achieved).
`O=S(=O)(Cc1c(F)cccc1OCF)c1ncc(Cl)s1` [Compound 1C-179]: the “ECHDG #1 herbicidal effect (growth inhibition grade)” value in assay [1] is given as 5 (Growth inhibition effect is equal to or greater than 90%, or complete withering is achieved). The “SCIJU #1 herbicidal effect (growth inhibition grade)” value in the assay on Scirpus juncoides is listed as 5 (Growth inhibition effect is equal to or greater than 90%, or complete withering is achieved). Further, in assay [2], the “ECHDG (2-2.5L) #2 herbicidal effect (growth inhibition grade)” value is listed as 5 (Growth inhibition effect is equal to or greater than 90%, or complete withering is achieved).

Values taken from patent publication US20200060276A1, “THIAZOLE COMPOUND AND HERBICIDE” (OAT Agrio Co., Ltd., priority 2017, published 2020).
